# Measured values as given in patent publication US5498605A (priority 1994, dated 1996).
# Assays:
# [1] = Sedation in rats after i.p. injection; format: in vivo, rat; details: 25 and 50 mg/kg i.p., during one hour
# A1 adenosine receptors = molecular target: T1, A1 adenosine receptors (Rattus norvegicus, UniProt P25099); assay: Inhibition of [3H]N6-phenylisopropyladenosine binding to A1 adenosine receptors in rat cerebral cortex membranes
# T1 construct: Rat cerebral cortical membranes and striatal membranes were prepared; from tissue; host or cells: rat cerebral cortical membranes
# T1 sequence (P25099 1-326): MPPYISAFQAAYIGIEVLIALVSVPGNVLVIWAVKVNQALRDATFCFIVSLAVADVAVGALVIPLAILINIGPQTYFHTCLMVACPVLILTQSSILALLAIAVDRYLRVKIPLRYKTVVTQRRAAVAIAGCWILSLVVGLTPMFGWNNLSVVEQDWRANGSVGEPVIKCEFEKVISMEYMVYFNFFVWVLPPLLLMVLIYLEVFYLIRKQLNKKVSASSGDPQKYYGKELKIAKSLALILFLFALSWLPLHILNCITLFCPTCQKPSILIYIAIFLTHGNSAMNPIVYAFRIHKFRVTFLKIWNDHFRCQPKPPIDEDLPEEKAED
# Method: Bound and free radioligand were separated by addition of 4 mL of a solution containing 50 mM Tris hydrochloride, at pH 7.4 at 5° C., followed by vacuum filtration using a Brandel Cell Harvester (Brandel, Gaithersburg, Md.) and a Whatman GF/B glass fiber filter with additional washes totaling 12 mL of buffer.
# (§1) At least seven different concentrations spanning four orders of magnitude, adjusted appropriately for the IC50 of each compound, were used.
# [2] = Rectal temperature in rats; format: in vivo, rat; details: Sprague Dawley rats, vehicle caused small rise (approximately 1° C.)
# Method: Rectal temperature was then recorded.
# A2 adenosine receptors = A2 adenosine receptors (Rattus norvegicus, UniProt P30543); assay: Inhibition of [3H]CGS 21680 binding to A2 receptors in rat striatal membranes; design: Rat cerebral cortical membranes and striatal membranes were prepared; from tissue; host or cells: rat striatal membranes; details: rat striatum
# Chain of A2 adenosine receptors (P30543 whole entry): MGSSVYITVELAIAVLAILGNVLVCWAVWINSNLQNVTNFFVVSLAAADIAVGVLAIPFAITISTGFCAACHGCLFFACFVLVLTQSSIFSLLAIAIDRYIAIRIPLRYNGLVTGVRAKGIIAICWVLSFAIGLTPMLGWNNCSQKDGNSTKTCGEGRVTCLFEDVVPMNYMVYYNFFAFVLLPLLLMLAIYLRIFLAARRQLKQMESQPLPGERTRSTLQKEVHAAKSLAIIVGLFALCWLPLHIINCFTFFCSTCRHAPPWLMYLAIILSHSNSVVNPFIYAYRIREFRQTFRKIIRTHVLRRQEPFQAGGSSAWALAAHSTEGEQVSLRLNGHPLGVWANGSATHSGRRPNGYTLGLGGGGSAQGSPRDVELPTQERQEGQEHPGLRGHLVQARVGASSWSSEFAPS
# Method: Membranes (about 80 μg protein, 5 mg wet weight, per tube) were incubated for one hour at 25° C. in a total volume of 1 mL. […] Filtration was carried out using a Brandel Cell Harvester, as above.
# as §1
# lipolysis [3] = assay: In vivo lipolysis (serum glycerol) in rats; design: species or system rat; details: post i.p. injection
# lipolysis [4] = assay: In vivo lipolysis (serum glycerol) in rats; design: species or system rat; details: for lowering of serum glycerol levels: at 60 min
# Method: Sprague Dawley rats (200-250 g) were fasted overnight. A blood sample was taken from the tail vein 10 sec before the subcutaneous injection of the drug in vehicle (10% DMSO in saline). Additional blood samples were taken from the tail vein at 30, 60 and 90 min post-injection and were kept on ice and centrifuged (1000 Xg) within one-half hour. A perchloric acid extract (3%) of plasma was neutralized with potassium hydroxide, 3-[N-morpholino]propanesulfonic acid, and then assayed for glycerol as described in Eggstein, et al., Methods of Enzymatic Analysis (H. U. Bermeyer ed., 1974), pp. 1825-1831.
# [5] = test system: synaptic potentials (fEPSPs) in CA1 region of hippocampal slices; assay: Inhibition of synaptic potentials (fEPSPs) in hippocampal slices (species not specified for this result); design: species or system adult rats and gerbils
# Method: Hippocampal slices were prepared from adult rats (200-300 g) and gerbils as described in Lee et al., Electrophysiology of Isolated Mammalian CNS Preparation (G. A. Kerkut and H. V. Wheat, eds. 1981), pp. 189-211. Field excitatory postsynaptic potentials (fEPSPs) were recorded in the stratum radiatum of the CA1 region in response to stimulation of Schaffer collateral/commisural afferents. Slices were superfused continuously with artificial cerebrospinal fluid (ACSF; described in Lee et al., and fEPSPs were sampled every 15 seconds.
# The amplitude of fEPSPs responses was measured on-line and plotted over the time course of each experiment. The magnitude of the inhibitory effect of a compound on fEPSP amplitude was expressed as the percentage inhibition, according to the formula: Percentage inhibition=[(Amplitude in ACSF only--Amplitude in drug)[…]Amplitude in ACSF only]×100.
structure (smiles),measurement,setting,value
"O=S(=O)(O)c1ccc(CCCNc2ncnc3c2ncn3[C@@H]2O[C@H](CO)[C@@H](O)[C@H]2O)cc1 [3-p-sulfophenylpropyl, N^6-3-p-sulfophenylpropyladenosine]",sedation,[1],moderate sedation
same,Ki,"A1 adenosine receptors; rat brain, vs 1.0 nM [3H]PIA, read-out: A1-Receptor Ki",610 ± 39 nM
same,affinity for the A1 cortical receptors (in words),A1 adenosine receptors; rat cerebral cortex,demonstrated affinity
same,rectal temperature,[2]; i.c.v.,caused rectal temperature depression
same,rectal temperature,[2]; i.p.,caused rectal temperature depression
same,affinity for the A2 striatal receptors (in words),A2 adenosine receptors,demonstrated affinity
same,time of maximum effect on serum glycerol,lipolysis [3],30 to 60 min
same,lowering of serum glycerol levels,lipolysis [4]; 0.5 mg/kg,30%
same,lowering of serum glycerol levels,lipolysis [4]; 1.0 mg/kg,34%
same,"effect on serum glycerol levels (inhibition of lipolysis, in words)",lipolysis [4]; doses of 0.1-1.0 mmol/kg,lower serum glycerol levels
same,onset of action,[5]; compared with adenosine and CPA,"slightly slower onset of action in this assay than adenosine itself, but a faster onset of action than CPA"
same,IC50,[5]; hippocampal slices,1700 nM
same,agonist action,[5]; hippocampal slices,clearly acts as an agonist
